We go through three molecules from article PMC3105219 (Neuropharmacology, 2011).

In one assay the test system is DAT. The following applies: ref Carroll et al., 1995, cited from earlier work.
The test system of a further assay is NET. The conditions noted are these: ref Carroll et al., 1995, cited from earlier work.
The target in a further assay is mDAT F155Y (Mus musculus, UniProt Q61327, F155Y). Description: Uptake inhibition, mDAT F155Y mutant. The following applies: for IC50: read-out: IC50 uptake inhibition, mDAT F155Y, mean ± SEM. In kind it is cell-based.
Chain of mDAT F155Y (Q61327 whole entry F155Y): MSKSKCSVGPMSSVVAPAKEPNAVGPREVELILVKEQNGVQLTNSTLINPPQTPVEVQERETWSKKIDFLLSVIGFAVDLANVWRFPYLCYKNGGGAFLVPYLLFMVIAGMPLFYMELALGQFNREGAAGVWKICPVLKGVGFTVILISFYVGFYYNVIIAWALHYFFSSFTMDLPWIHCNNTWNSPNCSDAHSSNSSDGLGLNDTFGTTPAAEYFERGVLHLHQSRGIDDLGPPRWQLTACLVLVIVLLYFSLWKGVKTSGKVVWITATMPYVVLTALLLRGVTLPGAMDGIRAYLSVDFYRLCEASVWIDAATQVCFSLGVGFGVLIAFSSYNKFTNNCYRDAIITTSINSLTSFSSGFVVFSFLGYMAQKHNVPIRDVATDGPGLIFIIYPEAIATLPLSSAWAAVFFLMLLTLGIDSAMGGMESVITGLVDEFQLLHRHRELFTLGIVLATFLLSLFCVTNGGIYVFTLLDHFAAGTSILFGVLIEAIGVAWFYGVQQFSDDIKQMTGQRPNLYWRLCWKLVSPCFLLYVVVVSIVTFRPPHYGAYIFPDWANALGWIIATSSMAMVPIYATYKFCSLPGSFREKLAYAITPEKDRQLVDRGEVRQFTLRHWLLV
A further assay addresses mNET Y151F (Mus musculus, UniProt O55192, Y151F). Description: Uptake inhibition, mNET Y151F mutant. In kind it is cell-based. The following applies: for IC50: read-out: IC50 uptake inhibition, mNET Y151F, mean ± SEM.
The target of the next assay is mNET Y151I (Mus musculus, UniProt O55192, Y151I). Description: Uptake inhibition, mNET Y151I mutant. The format is cell-based. The conditions noted are these: read-out: RTI-113 IC50 [nM] uptake inhibition, mean ± SEM.
Chain of mNET Y151I (O55192 whole entry Y151I): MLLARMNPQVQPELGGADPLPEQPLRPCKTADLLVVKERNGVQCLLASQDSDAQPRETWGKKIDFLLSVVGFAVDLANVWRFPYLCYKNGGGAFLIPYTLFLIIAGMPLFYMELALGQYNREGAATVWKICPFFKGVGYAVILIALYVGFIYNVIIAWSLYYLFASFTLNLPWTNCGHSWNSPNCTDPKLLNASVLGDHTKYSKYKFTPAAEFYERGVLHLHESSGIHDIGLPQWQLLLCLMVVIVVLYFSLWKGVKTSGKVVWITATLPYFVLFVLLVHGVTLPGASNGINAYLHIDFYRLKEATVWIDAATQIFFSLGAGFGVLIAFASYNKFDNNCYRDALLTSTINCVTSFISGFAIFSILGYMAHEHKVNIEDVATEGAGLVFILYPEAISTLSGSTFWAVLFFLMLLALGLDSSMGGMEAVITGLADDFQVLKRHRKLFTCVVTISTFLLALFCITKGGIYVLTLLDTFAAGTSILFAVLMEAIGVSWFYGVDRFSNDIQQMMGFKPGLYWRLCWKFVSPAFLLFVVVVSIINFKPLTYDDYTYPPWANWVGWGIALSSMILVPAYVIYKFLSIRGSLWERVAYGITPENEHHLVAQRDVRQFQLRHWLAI
The next assay addresses mNET Y151D (Mus musculus, UniProt O55192, Y151D). Description: Uptake inhibition, mNET Y151D mutant. The format is cell-based. The conditions noted are these: read-out: RTI-113 IC50 [nM] uptake inhibition, mean ± SEM.
The target of assay [1] is mNET-TM3m (Y151F/S159A/Y161H) (Mus musculus, UniProt O55192, S159A/Y151F/Y161H). Description: Uptake inhibition, mNET-TM3m mutant. The following applies: read-out: RTI-113 IC50 [nM] uptake inhibition, mean ± SEM. The format is cell-based.
Chain of mNET-TM3m (Y151F/S159A/Y161H) (O55192 whole entry Y151F/S159A/Y161H): as the sequence (O55192 whole entry Y151I) above, with I151F, S159A, Y161H counted along it
Another assay addresses mNET Y151G (Mus musculus, UniProt O55192, Y151G). Description: Uptake inhibition, mNET Y151G mutant. The format is cell-based. The conditions noted are these: read-out: RTI-113 IC50 [nM] uptake inhibition, mean ± SEM.
In another assay the target is mNET Y151M (Mus musculus, UniProt O55192, Y151M). Description: Uptake inhibition, mNET Y151M mutant. The conditions noted are these: read-out: RTI-113 IC50 [nM] uptake inhibition, mean ± SEM. In kind it is cell-based.
Chain of mNET Y151M (O55192 whole entry Y151M): as the sequence (O55192 whole entry Y151I) above, with I151M counted along it
The target of a further assay is mNET Y151C (Mus musculus, UniProt O55192, Y151C). Description: Uptake inhibition, mNET Y151C mutant. In kind it is cell-based. The following applies: read-out: RTI-113 IC50 [nM] uptake inhibition, mean ± SEM.
Chain of mNET Y151C (O55192 whole entry Y151C): as the sequence (O55192 whole entry Y151I) above, with I151C counted along it
The target in the next assay is mNET Y151E (Mus musculus, UniProt O55192, Y151E). Description: Uptake inhibition, mNET Y151E mutant. The following applies: read-out: RTI-113 IC50 [nM] uptake inhibition, mean ± SEM. The format is cell-based.
Chain of mNET Y151E (O55192 whole entry Y151E): as the sequence (O55192 whole entry Y151I) above, with I151E counted along it
Another assay has as its target mNET Y151A (Mus musculus, UniProt O55192, Y151A). Description: Uptake inhibition, mNET Y151A mutant. The format is cell-based. The following applies: read-out: RTI-113 IC50 [nM] uptake inhibition, mean ± SEM.
The target of assay [2] is mNET-TM6m (T306S/I315V/F316C/A321) (Mus musculus, UniProt O55192, A321V/F316C/I315V/T306S). Description: Uptake inhibition, mNET-TM6m mutant. The following applies: read-out: RTI-113 IC50 [nM] uptake inhibition, mean ± SEM. The format is cell-based.
Chain of mNET-TM6m (T306S/I315V/F316C/A321) (O55192 whole entry T306S/I315V/F316C/A321V): as the sequence (O55192 whole entry Y151I) above, with I151Y, T306S, I315V, F316C, A321V counted along it
Another assay deals with mNET Y151N (Mus musculus, UniProt O55192, Y151N). Description: Uptake inhibition, mNET Y151N mutant. The format is cell-based. The conditions noted are these: read-out: RTI-113 IC50 [nM] uptake inhibition, mean ± SEM.
Chain of mNET Y151N (O55192 whole entry Y151N): as the sequence (O55192 whole entry Y151I) above, with I151N counted along it
For assay [3], the target named is mNET-TM8m (A415T/L418I/S421A/A427S/A433V/D435E) (Mus musculus, UniProt O55192, A414T/A426S/A432V/D434E/L417I/S420A). Description: Uptake inhibition, mNET-TM8m mutant. In kind it is cell-based. The conditions noted are these: read-out: RTI-113 IC50 [nM] uptake inhibition, mean ± SEM.
Chain of mNET-TM8m (A415T/L418I/S421A/A427S/A433V/D435E) (O55192 whole entry A414T/L417I/S420A/A426S/A432V/D434E): as the sequence (O55192 whole entry Y151I) above, with I151Y, A414T, L417I, S420A, A426S, A432V, D434E counted along it
A further assay has as its target mNET Y151V (Mus musculus, UniProt O55192, Y151V). Description: Uptake inhibition, mNET Y151V mutant. The format is cell-based. The following applies: read-out: RTI-113 IC50 [nM] uptake inhibition, mean ± SEM.
A further assay has as its target mNET Y151T (Mus musculus, UniProt O55192, Y151T). Description: Uptake inhibition, mNET Y151T mutant. In kind it is cell-based. The conditions noted are these: read-out: RTI-113 IC50 [nM] uptake inhibition, mean ± SEM.
A further assay has as its target mNET Y151S (Mus musculus, UniProt O55192, Y151S). Description: Uptake inhibition, mNET Y151S mutant. The format is cell-based. The conditions noted are these: read-out: RTI-113 IC50 [nM] uptake inhibition, mean ± SEM.
Another assay deals with mNET Y151W (Mus musculus, UniProt O55192, Y151W). Description: Uptake inhibition, mNET Y151W mutant. In kind it is cell-based. The conditions noted are these: read-out: RTI-113 IC50 [nM] uptake inhibition, mean ± SEM.
Chain of mNET Y151W (O55192 whole entry Y151W): as the sequence (O55192 whole entry Y151I) above, with I151W counted along it
A further assay concerns the target mNET Y151Q (Mus musculus, UniProt O55192, Y151Q). Description: Uptake inhibition, mNET Y151Q mutant. In kind it is cell-based. The following applies: read-out: RTI-113 IC50 [nM] uptake inhibition, mean ± SEM.
The target in a further assay is mNET Y151L (Mus musculus, UniProt O55192, Y151L). Description: Uptake inhibition, mNET Y151L mutant. In kind it is cell-based. The following applies: read-out: RTI-113 IC50 [nM] uptake inhibition, mean ± SEM.
Chain of mNET Y151L (O55192 whole entry Y151L): as the sequence (O55192 whole entry Y151I) above, with I151L counted along it
The next assay concerns the target mNET Y151K (Mus musculus, UniProt O55192, Y151K). Description: Uptake inhibition, mNET Y151K mutant. The format is cell-based. The conditions noted are these: read-out: RTI-113 IC50 [nM] uptake inhibition, mean ± SEM.
For a further assay, the target named is mDAT (Mus musculus, UniProt Q61327). Description: Inhibition of [3H]dopamine uptake, wild type mDAT in transfected HeLa cells. The format is cell-based.
Chain of mDAT (Q61327 whole entry): as the sequence (Q61327 whole entry F155Y) above, with Y155F counted along it
For another assay, the target named is mNET (Mus musculus, UniProt O55192). The format is cell-based.
Chain of mNET (O55192 whole entry): as the sequence (O55192 whole entry Y151I) above, with I151Y counted along it

One may read the IC50 as the concentration that gives 50% inhibition.

Chain of mNET Y151F (O55192 whole entry Y151F): as the sequence (O55192 whole entry Y151I) above, with I151F counted along it
Chain of mNET Y151T (O55192 whole entry Y151T): as the sequence (O55192 whole entry Y151I) above, with I151T counted along it
Chain of mNET Y151Q (O55192 whole entry Y151Q): as the sequence (O55192 whole entry Y151I) above, with I151Q counted along it
Chain of mNET Y151G (O55192 whole entry Y151G): as the sequence (O55192 whole entry Y151I) above, with I151G counted along it
Chain of mNET Y151A (O55192 whole entry Y151A): as the sequence (O55192 whole entry Y151I) above, with I151A counted along it
Chain of mNET Y151S (O55192 whole entry Y151S): as the sequence (O55192 whole entry Y151I) above, with I151S counted along it
Chain of mNET Y151D (O55192 whole entry Y151D): as the sequence (O55192 whole entry Y151I) above, with I151D counted along it
Chain of mNET Y151K (O55192 whole entry Y151K): as the sequence (O55192 whole entry Y151I) above, with I151K counted along it
Chain of mNET Y151V (O55192 whole entry Y151V): as the sequence (O55192 whole entry Y151I) above, with I151V counted along it

In the case of `COC(=O)[C@H]1[C@@H](c2ccc(Cl)cc2)C[C@H]2CC[C@H]1N2C` [RTI-31], the “potency in inhibiting DAT compared with cocaine” value in the assay with DAT (times more potent than cocaine) is on record as 100 x. In addition, the “potency in inhibiting NET compared with cocaine” value with NET (times more potent than cocaine) is on record as 100 x. For the same molecule, the results for the concentration for half-maximal inhibition (IC50) on mDAT F155Y and at mNET Y151F were 1.65 ± 1.19 nM and 1.44 ± 0.67 nM, respectively.

With `CN1[C@H]2CC[C@@H]1[C@@H](C(=O)Oc1ccccc1)[C@@H](c1ccc(Cl)cc1)C2` [RTI-113], the IC50 at mNET Y151I is 199 ± 65.1 nM; at mNET Y151D, 306 ± 105 nM; in assay [1], 1.89 ± 1.29 nM; at mNET Y151G, 165 ± 28.4 nM; on mNET Y151M it was 679 ± 174 nM; on mNET Y151C, 211 ± 23 nM. The IC50 on mNET Y151E was found to be 770 ± 55.3 nM; at mNET Y151A it was 130 ± 15.1 nM; in assay [2], 341 ± 77.2 nM; on mNET Y151N, 291 ± 51.5 nM; in [3], 269 ± 35.8 nM; on mNET Y151V it was 181 ± 81.1 nM. Further, the IC50 at mNET Y151T came out at 115 ± 33.2 nM; at mNET Y151S, 99.3 ± 43.8 nM; on mNET Y151W, 256 ± 66.9 nM; at mNET Y151Q, 831 ± 69 nM; on mNET Y151L it was 342 ± 110 nM; at mDAT F155Y it was 13.4 ± 1.9 nM. In addition, the IC50 at mNET Y151K is 453 ± 71 nM; on mNET Y151F it was 12.1 ± 0.8 nM. Also, the “potency at inhibiting DAT relative to inhibiting NET” value with DAT (DAT over NET selectivity, stated in abstract) is 100 x. Further, the “loss of potency to NET compared with RTI-31” value in the assay with NET (times less potent than RTI-31) is “about 100 times”. The molecule further yielded a decrease in potency at mDAT F155Y (mDAT-F155Y versus wild type mDAT) of 20 fold. Also, the “increase in potency for inhibition of substrate uptake” value on mNET Y151F (mNET-Y151F versus wild type mNET) came to 14 fold.

As for `COC(=O)[C@H]1[C@@H](OC(=O)c2ccccc2)C[C@@H]2CC[C@H]1N2C` [cocaine], the IC50 stood at 318 ± 126 nM against mDAT and 398 ± 66.8 nM on mNET.
